Tests used:
Experiment in all cases: Bliss excess, mean over the matrix (fraction); higher = more synergy
HCC70 (Breast Carcinoma) = system: HCC70 (Breast Carcinoma)
Outline: (§1)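 Bliss excess equals the observed combination effect minus the expected value EA + EB − EA·EB, where EA and EB are the effects of each agent alone. Combination Emax is the second-highest inhibition within the matrix. Inhibition was scaled from CellTiter-Glo 2.0 luminescence, with 0 set by vehicle wells and 1 by blank wells, after 72 hours of two-drug dosing of cells plated in 1536-well plates.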

[1] = system: CAL-27 (Oral Cavity Carcinoma)
Outline: as §1

[2] = system: KYSE-220 (Esophageal Squamous Cell Carcinoma)
Outline: as §1

[3] = system: CGTH-W-1 (Thyroid Gland Carcinoma)
Outline: as §1

[4] = system: SK-HEP-1 (Hepatocellular Carcinoma)
Outline: as §1

COLO-792 (Melanoma) = system: COLO-792 (Melanoma)
Outline: as §1

A204 (Rhabdomyosarcoma) = system: A204 (Rhabdomyosarcoma)
Outline: as §1

[5] = system: NCI-H2228 (Lung Adenocarcinoma)
Outline: as §1

[6] = system: Jurkat (T-Lymphoblastic Leukemia)
Outline: as §1

[7] = system: NCI-H1651 (Lung Adenocarcinoma)
Outline: as §1

RH-41 (Rhabdomyosarcoma) = system: RH-41 (Rhabdomyosarcoma)
Outline: as §1

[8] = system: NCI-H1703 (Squamous Cell Lung Carcinoma)
Outline: as §1

[9] = system: NCI-H2087 (Lung Adenocarcinoma)
Outline: as §1

[10] = system: huH-1 (Hepatocellular Carcinoma)
Outline: as §1

EW-7 (Ewing's Sarcoma) = system: EW-7 (Ewing's Sarcoma)
Outline: as §1

[11] = system: JHH-2 (Hepatocellular Carcinoma)
Outline: as §1

EB2 (Burkitt's Lymphoma) = system: EB2 (Burkitt's Lymphoma)
Outline: as §1

[12] = system: UACC-812 (Breast Carcinoma)
Outline: as §1

KP-N-YN (Neuroblastoma) = system: KP-N-YN (Neuroblastoma)
Outline: as §1

[13] = system: HCC1428 (Breast Carcinoma)
Outline: as §1

SMILES | Bliss excess (HCC70 (Breast Carcinoma)) | Bliss excess [1] | Bliss excess [2] | Bliss excess [3] | Bliss excess [4] | Bliss excess (COLO-792 (Melanoma)) | Bliss excess (A204 (Rhabdomyosarcoma)) | Bliss excess [5] | Bliss excess [6] | Bliss excess [7] | Bliss excess (RH-41 (Rhabdomyosarcoma)) | Bliss excess [8] | Bliss excess [9] | Bliss excess [10] | Bliss excess (EW-7 (Ewing's Sarcoma)) | Bliss excess [11] | Bliss excess (EB2 (Burkitt's Lymphoma)) | Bliss excess [12] | Bliss excess (KP-N-YN (Neuroblastoma)) | Bliss excess [13]
CCN(CCO)CCCOc1ccc2c(Nc3cc(CC(=O)Nc4cccc(F)c4)[nH]n3)ncnc2c1 [AZD2811] + O=C(c1cc(Cc2n[nH]c(=O)c3ccccc23)ccc1F)N1CCN(C(=O)C2CC2)CC1 [Olaparib] (first compound max 1 µM, 7x7, partner max 10 µM) | -0.0249 | 0.0484 | 0.01 | 0.008 | -0.0121 | -0.0187 | 0.0034 | -0.021 | 0.0634 | 0.0136 | 0.0053 | 0.0062 | 0.0128 | -0.0014 | 0.0067 | -0.0748 | 0.0141 | 0.0076 | 0.0058 | -0.0081
CC1(C)CCC(CN2CCN(c3ccc(C(=O)NS(=O)(=O)c4ccc(NCC5CCOCC5)c([N+](=O)[O-])c4)c(Oc4cnc5[nH]ccc5c4)c3)CC2)=C(c2ccc(Cl)cc2)C1 [Venetoclax] + C[C@@H]1COCCN1C2=NC(=NC(=C2)C3(CC3)[S@](=N)(=O)C)C4=C5C=CNC5=NC=C4 [AZD6738] (first compound max 1 µM, 7x7, partner max 10 µM) | -0.0528 | -0.0559 | -0.0398 | -0.0224 | -0.0342 | 0.03 | -0.0355 | -0.0361 | 0.0361 | -0.0123 | 0.0355 | -0.0216 | -0.0511 | -0.045 | -0.037 | -0.019 | -0.035 | 0.0003 | -0.0619 | -0.0137
CC1(C)CCC(CN2CCN(c3ccc(C(=O)NS(=O)(=O)c4ccc(NCC5CCOCC5)c([N+](=O)[O-])c4)c(Oc4cnc5[nH]ccc5c4)c3)CC2)=C(c2ccc(Cl)cc2)C1 [Venetoclax] + CCN(CCO)CCCOc1ccc2c(Nc3cc(CC(=O)Nc4cccc(F)c4)[nH]n3)ncnc2c1 [AZD2811] (first compound max 1 µM, 7x7, partner max 1 µM) | -0.0223 | -0.0302 | 0.0335 | -0.0078 | -0.0621 | -0.0048 | 0.0005 | -0.039 | 0.0202 | 0.0011 | 0.0561 | 0.0412 | -0.0281 | -0.0337 | -0.0227 | -0.038 | -0.0357 | -0.0283 | 0.104 | 0.118
COc1cccc(OCCCN)c1-c1cc(Nc2cnc(C#N)cn2)n[nH]1 [Prexasertib] + C=CCn1c(=O)c2cnc(Nc3ccc(N4CCN(C)CC4)cc3)nc2n1-c1cccc(C(C)(C)O)n1 [AZD1775] (first compound max 1 µM, partner max 1 µM) | 0.0723 | 0.0945 | 0.0333 | 0.0632 | 0.0775 | 0.0236 | 0.0437 | 0.0199 | 0.0561 | 0.0428 | 0.0677 | 0.066 | 0.0576 | 0.0613 | 0.0157 | 0.0869 | 0.0249 | 0.0705 | 0.0385 | 0.138
CC(=O)Nc1cccc(-n2c(=O)n(C3CC3)c(=O)c3c(Nc4ccc(I)cc4F)n(C)c(=O)c(C)c32)c1 [Trametinib] + Cc1nc(-c2cn3c(n2)-c2ccc(-c4cnn(C(C)(C)C(N)=O)c4)cc2OCC3)n(C(C)C)n1 [Taselisib] (first compound max 1 µM, 7x7, partner max 10 µM) | 0.149 | 0.128 | 0.152 | 0.174 | 0.0781 | 0.113 | 0.149 | 0.0724 | 0.0414 | 0.0354 | 0.0419 | 0.0652 | 0.163 | 0.195 | 0.0479 | -0.0221 | 0.0658 | 0.0522 | 0.0046 | 0.0116
COc1nnc2ccc(N3CCC(c4ccc(OCCN5CCN(C)C(=O)[C@H]5C)cc4)CC3)nn12 [AZD5153] + Cn1cnc2c(F)c(Nc3ccc(Br)cc3Cl)c(C(=O)NOCCO)cc21 [Selumetinib] (first compound max 1 µM, 7x7, partner max 10 µM) | 0.0982 | -0.0093 | 0.123 | -0.0059 | -0.0764 | -0.055 | -0.0838 | -0.0535 | -0.0326 | -0.0319 | -0.0176 | -0.0065 | -0.0192 | -0.0102 | -0.032 | 0.0024 | -0.0216 | 0.0089 | -0.0967 | 0.0137
CC1(C)CCC(CN2CCN(c3ccc(C(=O)NS(=O)(=O)c4ccc(NCC5CCOCC5)c([N+](=O)[O-])c4)c(Oc4cnc5[nH]ccc5c4)c3)CC2)=C(c2ccc(Cl)cc2)C1 [Venetoclax] + Cc1cc2ncnn2cc1Nc1ncc2c(n1)n(C1CCOCC1)c(=O)n2C [AZD7648] (first compound max 1 µM, 7x7, partner max 10 µM) | -0.0423 | 0.0079 | -0.0371 | -0.0771 | -0.0387 | -0.0139 | -0.0172 | -0.0072 | 0.0164 | -0.0342 | -0.0007 | 0.0396 | -0.0467 | -0.0511 | -0.0345 | -0.069 | -0.0338 | 0.0286 | -0.0085 | -0.006
CC1(C)CCC(CN2CCN(c3ccc(C(=O)NS(=O)(=O)c4ccc(NCC5CCOCC5)c([N+](=O)[O-])c4)c(Oc4cnc5[nH]ccc5c4)c3)CC2)=C(c2ccc(Cl)cc2)C1 [Venetoclax] + C=CCn1c(=O)c2cnc(Nc3ccc(N4CCN(C)CC4)cc3)nc2n1-c1cccc(C(C)(C)O)n1 [AZD1775] (first compound max 1 µM, partner max 1 µM) | 0.0562 | -0.0321 | -0.0321 | -0.0114 | -0.0252 | 0.021 | -0.0433 | -0.0602 | -0.0183 | -0.0218 | 0.0778 | 0.009 | -0.0408 | -0.066 | 0.0406 | 0.0531 | 0.063 | -0.0681 | 0.0109 | -0.0386
CC1(C)CCC(CN2CCN(c3ccc(C(=O)NS(=O)(=O)c4ccc(NCC5CCOCC5)c([N+](=O)[O-])c4)c(Oc4cnc5[nH]ccc5c4)c3)CC2)=C(c2ccc(Cl)cc2)C1 [Venetoclax] + CN(C)CCCOc1ccc(-c2ccc3ncc4c(c3c2)n(C2CCOCC2)c(=O)n4C)cn1 [AZD0156] (first compound max 1 µM, 7x7, partner max 1 µM) | -0.0057 | 0.0065 | -0.0135 | -0.0286 | -0.057 | 0.0153 | -0.0325 | -0.0004 | -0.0111 | -0.0174 | 0.0618 | 0.013 | -0.0389 | -0.032 | -0.007 | -0.028 | 0.0106 | -0.016 | -0.0016 | 0.0145
COc1nnc2ccc(N3CCC(c4ccc(OCCN5CCN(C)C(=O)[C@H]5C)cc4)CC3)nn12 [AZD5153] + CCN(CCO)CCCOc1ccc2c(Nc3cc(CC(=O)Nc4cccc(F)c4)[nH]n3)ncnc2c1 [AZD2811] (first compound max 1 µM, 7x7, partner max 1 µM) | -0.0734 | -0.127 | 0.0083 | 0.0228 | -0.103 | -0.0406 | -0.0849 | -0.0285 | 0.0305 | 0.004 | 0.021 | -0.038 | -0.0645 | 0.0201 | 0.0274 | -0.0496 | -0.102 | -0.0742 | -0.0355 | -0.0173
C[C@@H]1COCCN1c1cc(C2([S@](C)(=N)=O)CC2)nc(-c2ccnc3[nH]ccc23)n1 [AZD6738] + O=C(c1cc(Cc2n[nH]c(=O)c3ccccc23)ccc1F)N1CCN(C(=O)C2CC2)CC1 [Olaparib] (first compound max 10 µM, 7x7, partner max 10 µM) | 0.0085 | 0.12 | -0.0642 | 0.0176 | 0.0248 | 0.0322 | -0.0075 | -0.0305 | 0.0592 | 0.0418 | -0.0201 | -0.041 | -0.0008 | -0.0162 | -0.0896 | -0.0152 | -0.0553 | -0.0422 | -0.203 | -0.003
COc1nnc2ccc(N3CCC(c4ccc(OCCN5CCN(C)C(=O)[C@H]5C)cc4)CC3)nn12 [AZD5153] + C=CCn1c(=O)c2cnc(Nc3ccc(N4CCN(C)CC4)cc3)nc2n1-c1cccc(C(C)(C)O)n1 [AZD1775] (first compound max 1 µM, partner max 1 µM) | -0.0339 | -0.0481 | -0.0622 | 0.0137 | -0.0166 | 0.0823 | -0.0887 | -0.0784 | -0.0038 | 0.0305 | 0.0035 | 0.0052 | -0.0368 | 0.024 | -0.0403 | -0.1 | -0.135 | -0.0066 | -0.135 | -0.0221
CC1(C)CCC(CN2CCN(c3ccc(C(=O)NS(=O)(=O)c4ccc(NCC5CCOCC5)c([N+](=O)[O-])c4)c(Oc4cnc5[nH]ccc5c4)c3)CC2)=C(c2ccc(Cl)cc2)C1 [Venetoclax] + COc1cc(Nc2ncc3c(n2)-c2ccc(Cl)cc2C(c2c(F)cccc2OC)=NC3)ccc1C(=O)O [Alisertib] (first compound max 1 µM, 7x7, partner max 10 µM) | 0.0437 | -0.0088 | -0.0305 | -0.0198 | -0.0578 | 0.0487 | -0.0088 | -0.0413 | 0.165 | 0.0211 | 0.135 | 0.0636 | -0.0241 | -0.02 | 0.0262 | -0.0018 | 0.13 | -0.0157 | 0.0886 | 0.0554
CCN(CCO)CCCOc1ccc2c(Nc3cc(CC(=O)Nc4cccc(F)c4)[nH]n3)ncnc2c1 [AZD2811] + C=CCn1c(=O)c2cnc(Nc3ccc(N4CCN(C)CC4)cc3)nc2n1-c1cccc(C(C)(C)O)n1 [AZD1775] (first compound max 1 µM, partner max 1 µM) | -0.0112 | 0.0013 | -0.0225 | -0.0014 | 0.0336 | 0.043 | 0.0168 | 0.0112 | 0.0809 | -0.0268 | 0.0118 | -0.0453 | -0.0831 | -0.0176 | 0.0623 | 0.0198 | -0.0165 | -0.0352 | -0.027 | -0.0478

Source: the supplement of paper PMC11061612
